Values of other authors as cited in patent US20220257649A1, “COMBINATION THERAPIES FOR MULTIPLE MYELOMA” (NantCell, Inc., priority 2018, published 2022).

Tests used:
[1] = test system: multiple myeloma; conditions: for rate of nearly complete response (CR): in combination with dexamethasone, induction therapy before ASCT; for rate of nearly CR: three-drug induction schedule: bortezomib-dexamethasone plus the named drug
[2] = test system: aggressive solid and hematological tumor models
[3] = following i.v. administration in mice
[4] = test system: IL-15 activity; conditions: in vitro and in vivo
[5] = test system: relapsed or refractory multiple myeloma; conditions: alone, with bortezomib, or with lenalidomide and low-dose dexamethasone
[6] = test system: primary multiple myeloma cells; conditions: in the presence of peripheral lymphocytes
[7] = target: T1, IL-2Rβγ (Homo sapiens, UniProt P14784+P31785); conditions: IL-15 mutant
T1 sequence (P14784 27-551): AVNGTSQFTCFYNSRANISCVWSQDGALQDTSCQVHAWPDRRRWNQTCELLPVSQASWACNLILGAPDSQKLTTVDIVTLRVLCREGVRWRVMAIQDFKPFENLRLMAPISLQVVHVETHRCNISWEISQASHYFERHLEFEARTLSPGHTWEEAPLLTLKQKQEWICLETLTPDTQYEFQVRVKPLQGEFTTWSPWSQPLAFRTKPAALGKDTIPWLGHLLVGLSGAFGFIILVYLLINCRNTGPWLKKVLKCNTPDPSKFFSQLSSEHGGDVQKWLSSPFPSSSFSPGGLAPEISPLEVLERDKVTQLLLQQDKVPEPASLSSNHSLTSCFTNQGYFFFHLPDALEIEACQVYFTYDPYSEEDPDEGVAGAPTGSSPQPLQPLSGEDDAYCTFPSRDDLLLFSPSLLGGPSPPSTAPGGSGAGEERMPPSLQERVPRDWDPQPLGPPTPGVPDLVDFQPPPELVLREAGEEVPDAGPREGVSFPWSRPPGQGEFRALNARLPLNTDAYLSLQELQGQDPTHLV
T1 sequence (P31785 23-369): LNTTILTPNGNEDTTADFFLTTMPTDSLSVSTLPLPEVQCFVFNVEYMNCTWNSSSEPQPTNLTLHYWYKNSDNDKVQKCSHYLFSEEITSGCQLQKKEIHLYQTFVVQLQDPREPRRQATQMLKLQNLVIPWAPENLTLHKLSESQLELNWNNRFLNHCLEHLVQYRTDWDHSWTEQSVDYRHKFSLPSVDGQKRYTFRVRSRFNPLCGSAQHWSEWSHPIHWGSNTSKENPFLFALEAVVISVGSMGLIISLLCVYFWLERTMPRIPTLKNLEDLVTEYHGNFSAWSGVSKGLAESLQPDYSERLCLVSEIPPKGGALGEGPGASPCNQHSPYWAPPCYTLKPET

O=C1CCC(N2C(=O)c3ccccc3C2=O)C(=O)N1 (stereo not drawn) [Thalidomide]
rate of nearly complete response (CR) [1]: 8%
rate of nearly CR [1]: 32%

N-803: IL-15 super agonist complex: IL-15 mutant (IL-15N72D) bound to an IL-15 receptor α/IgG1 Fc fusion protein
anti-tumor activity ([2]; aggressive solid and hematological tumor models, immunocompetent mice): impressive anti-tumor activity
resistance of cured tumor-bearing mice to re-challenge with the same tumor cells ([2]; mice cured after N-803 treatment): highly resistant to re- challenge
half-life [3]: 25 h
IL-15 activity [4]: highly potent IL-15 activity

O=P1(N(CCCl)CCCl)NCCCO1 (stereo not drawn) [cyclophosphamide]
rate of nearly CR [1]: 39%

COc1cccc2c1C(=O)c1c(O)c3c(c(O)c1C2=O)C[C@@](O)(C(=O)CO)C[C@@H]3O[C@H]1C[C@H](N)[C@H](O)[C@H](C)O1 [doxorubicin]
rate of nearly CR [1]: 7%

Elotuzumab: humanized monoclonal IgG1 antibody directed against CS-1
activity [5]: encouraging activity
safety profile [5]: manageable safety profile
antibody-dependent cellular cytotoxicity (ADCC) [6]: significant antibody-dependent cellular cytotoxicity (ADCC)

Nc1cccc2c1CN(C1CCC(=O)NC1=O)C2=O (stereo not drawn) [lenalidomide]
rate of nearly complete response (CR) [1]: 15%
rate of nearly CR [1]: 57%

CC(C)C[C@H](NC(=O)[C@H](Cc1ccccc1)NC(=O)c1cnccn1)B(O)O [bortezomib]
rate of nearly complete response (CR) [1]: 16%

IL-15N72D: IL-15 mutant with increased ability to bind IL-2Rβγ; component of N-803
ability to bind IL-2Rβγ [7]: increased ability to bind IL-2Rβγ
